The supplement of paper PMC10307832

What was measured:
Experiment in all cases: relative viability (nuclei count vs DMSO), 5 days (fraction); higher = more cells survive
[1] = compound: C1=CC(=CC=C1NC(=S)NNC2=C(C=C(C=C2[N+](=O)[O-])C(F)(F)F)[N+](=O)[O-])F [Kobe2602] + C[C@@H](Oc1cc(-c2cnn(C3CCNCC3)c2)cnc1N)c1c(Cl)ccc(F)c1Cl [Crizotinib] (partner 1 µM)
Outline: (§1)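 Five library-drug doses in √10 steps were combined with a fixed anchor-drug dose, or a single drug was given alone, by pin tool to lung cancer cell lines in 1536-well plates the day after seeding. Nuclei were stained and counted after 5 days. Relative viability is the nuclei count in treated wells over that in vehicle wells, taken as the median of duplicate plates.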

[2] = compound: C1=CC(=CC=C1NC(=S)NNC2=C(C=C(C=C2[N+](=O)[O-])C(F)(F)F)[N+](=O)[O-])F [Kobe2602] + NC(=O)Nc1cc(-c2cccc(F)c2)sc1C(=O)N[C@H]1CCCNC1 [AZD7762] (partner 0.2 µM)
Outline: as §1

[3] = compound: COc1cc2nccc(Oc3ccc(NC(=O)C4(C(=O)Nc5ccc(F)cc5)CC4)cc3)c2cc1OC [Cabozantinib] + CS(=O)(=O)CCNCc1ccc(-c2ccc3ncnc(Nc4ccc(OCc5cccc(F)c5)c(Cl)c4)c3c2)o1 [Lapatinib] (partner 2 µM)
Outline: as §1

[4] = compound: C1=CC(=CC=C1NC(=S)NNC2=C(C=C(C=C2[N+](=O)[O-])C(F)(F)F)[N+](=O)[O-])F [Kobe2602] + CCNC(=O)c1noc(-c2cc(C(C)C)c(O)cc2O)c1-c1ccc(CN2CCOCC2)cc1 [Luminespib] (partner 0.01 µM)
Outline: as §1

Cell Line | relative viability ([1]; first compound 0.2 µM) | relative viability ([1]; first compound 0.6325 µM) | relative viability ([1]; first compound 2 µM) | relative viability ([1]; first compound 6.325 µM) | relative viability ([1]; first compound 20 µM) | relative viability ([2]; first compound 0.2 µM) | relative viability ([2]; first compound 0.6325 µM) | relative viability ([2]; first compound 2 µM) | relative viability ([2]; first compound 6.325 µM) | relative viability ([2]; first compound 20 µM) | relative viability ([3]; first compound 0.06325 µM) | relative viability ([3]; first compound 0.2 µM) | relative viability ([3]; first compound 0.6325 µM) | relative viability ([3]; first compound 2 µM) | relative viability ([4]; first compound 0.2 µM) | relative viability ([4]; first compound 0.6325 µM) | relative viability ([4]; first compound 2 µM) | relative viability ([4]; first compound 6.325 µM) | relative viability ([4]; first compound 20 µM) | relative viability ([3]; first compound 0.02 µM)
NCI-H23 | 0.5 | 0.604 | 0.392 | 0.499 | 0.619 | 0.332 | 0.312 | 0.217 | 0.197 | 0.182 | 1.37 | 1.07 | 1.04 | 0.885 | 0.248 | 0.201 | 0.227 | 0.214 | 0.202 | 
ABC-1 | 1 | 1.04 | 1.06 | 1.21 | 1.08 | 0.85 | 1 | 0.939 | 0.882 | 0.646 | 1.1 | 1.11 | 1.1 | 1.13 | 0.785 | 0.851 |  | 0.494 | 0.887 | 1.42
NCI-H2085 | 0.843 | 0.823 | 0.904 | 0.855 | 0.723 | 0.931 | 1.01 | 0.986 | 0.87 | 0.943 | 0.881 | 0.676 | 0.728 | 0.643 | 0.393 | 0.466 |  | 0.478 | 0.436 | 0.793
NCI-H1944 | 1.01 | 1.19 | 1.14 | 1.09 | 1.14 | 0.561 | 0.553 | 0.704 | 0.496 | 0.585 | 0.858 | 0.793 | 0.756 | 0.884 | 0.74 | 0.801 | 0.608 | 0.739 | 0.645 | 
NCI-H2170 | 1.22 | 1.21 | 1.14 | 1.31 | 1.13 | 0.9 | 0.875 | 0.869 | 0.823 | 0.886 | 0.302 | 0.16 | 0.353 | 0.27 | 0.856 | 0.922 | 0.703 | 0.944 | 0.719 | 0.263
NCI-H322M | 0.81 | 0.95 | 0.995 | 0.893 | 0.867 | 0.604 | 0.52 | 0.474 | 0.72 | 0.587 | 0.632 |  | 0.584 | 0.58 | 0.895 | 0.944 | 0.855 | 0.478 | 1.06 | 0.454
NCI-H647 | 1.2 | 1.24 | 0.887 | 1.07 | 1.03 | 0.681 | 0.645 | 0.423 | 0.532 | 0.454 | 1.45 | 1.15 | 1.13 | 0.734 | 0.259 | 0.188 | 0.152 | 0.112 | 0.225 | 1.29
NCI-H1792 | 0.965 | 0.928 | 0.985 | 0.726 | 1.05 | 0.553 | 0.792 | 0.593 | 0.578 | 0.769 | 1.13 | 0.846 | 0.862 | 0.85 | 0.319 | 0.58 | 0.47 | 0.558 | 0.517 | 0.78
LK-2 | 0.248 | 0.273 | 0.231 | 0.271 | 0.257 | 0.464 | 0.385 | 0.427 | 0.302 | 0.553 | 1.15 | 0.929 | 0.948 | 0.856 | 0.189 | 0.204 | 0.182 | 0.154 | 0.195 | 
NCI-H1755 | 0.842 | 0.851 | 0.821 | 0.83 | 0.884 | 0.416 | 0.446 | 0.642 | 0.407 | 0.544 | 1.12 | 1.05 | 0.964 | 0.932 | 0.334 | 0.425 | 0.414 | 0.395 | 0.322 | 1.02
EPLC-272H | 0.772 | 0.905 | 0.967 | 0.899 | 0.914 | 0.349 | 0.212 | 0.187 | 0.24 | 0.282 | 1.22 | 0.877 | 0.97 | 0.701 | 0.259 | 0.83 | 0.327 | 0.363 | 0.27 | 0.899
